Structures can show the parent of a compound that is named as a salt.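 Each compound was tested at five concentrations against cells in 96-well plates for 48 hours. Abbreviation: GI50, concentration required for 50% inhibition of growth.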 Active and inactive are the calls of the source. Rule as the data show it: active = GI50 up to about 1.1 µM and inactive = higher.

Test systems include HT-29; COLO 205; TK-10; OVCAR-8; ACHN; MOLT-4; UACC-62; MDA-MB-231; NCI/ADR-RES; HOP-92; OVCAR-3; SK-MEL-28; SF-295; UO-31; SN12C; SK-OV-3; CCRF-CEM; MDA-N; SNB-75; SW-620.
Test in all cases: inhibition of tumour cell growth, NCI panel, 48 h

As to `Cc1ccc2nc(/C=N/c3ccccc3Cl)cc(C)c2c1`, the GI50 in the test with HT-29 was 18.4 µM (inactive); in the test with COLO 205, 50.8 µM (inactive); in the test with TK-10, 30.3 µM (inactive); in the test with OVCAR-8, 15.2 µM (inactive); in the test with ACHN, 30.7 µM (inactive); in the test on MOLT-4 it was 5.79 µM (inactive). Moreover, the GI50 was 14.6 µM (inactive) with UACC-62; 13.2 µM (inactive) in the test on MDA-MB-231; 16.8 µM (inactive) in the test on NCI/ADR-RES; 25.4 µM (inactive) with HOP-92; 17.5 µM (inactive) in the test with OVCAR-3; 18.9 µM (inactive) in the test with SK-MEL-28. Further, the GI50 in the test on SF-295 was 21.9 µM (inactive); in the test with UO-31, 16.5 µM (inactive); with SN12C it was 12.2 µM (inactive); in the test on SK-OV-3, 27.4 µM (inactive); in the test on CCRF-CEM it was 4.89 µM (inactive); in the test with MDA-N, 5.57 µM (inactive). The GI50 in the test on SNB-75 is 19.9 µM (inactive); with SW-620, 13.1 µM (inactive).
On to `CC(=O)SC(C[N+](=O)[O-])c1ccccc1` (stereo not given), for which the GI50 was 2.06 µM (inactive) with HT-29; 2.77 µM (inactive) in the test with COLO 205; 7.26 µM (inactive) in the test on TK-10; 11.8 µM (inactive) in the test on OVCAR-8; 3.66 µM (inactive) with ACHN; 1.72 µM (inactive) with MOLT-4. Also, the GI50 was 13.9 µM (inactive) with UACC-62; 10.8 µM (inactive) with MDA-MB-231; 20.1 µM (inactive) in the test on NCI/ADR-RES; 12.6 µM (inactive) in the test on HOP-92; 5.37 µM (inactive) in the test on OVCAR-3; 5.55 µM (inactive) in the test on SK-MEL-28. Besides, the GI50 in the test with SF-295 is 6.15 µM (inactive); in the test on UO-31 it was 2.3 µM (inactive); in the test with SN12C, 11.1 µM (inactive); in the test on SK-OV-3, 13.3 µM (inactive); with CCRF-CEM, 2.84 µM (inactive); in the test on MDA-N, 2.32 µM (inactive). For the same compound, the GI50 was 2.29 µM (inactive) with SNB-75 and 2.18 µM (inactive) with SW-620.
Regarding `CCc1nc(N)nc(N)c1-c1ccc(NC)c([N+](=O)[O-])c1`, the GI50 was 0.44 µM (active) with HT-29; 4.84 µM (inactive) in the test with COLO 205; 28.2 µM (inactive) in the test on TK-10; 0.662 µM (active) with OVCAR-8; 0.594 µM (active) in the test with ACHN; 1 µM (active) in the test on MOLT-4. In addition, the GI50 was 0.531 µM (active) with UACC-62; 27.2 µM (inactive) in the test on MDA-MB-231; 1.2 µM (inactive) with NCI/ADR-RES; 8.81 µM (inactive) in the test on HOP-92; 10.7 µM (inactive) in the test on OVCAR-3; 43.7 µM (inactive) in the test on SK-MEL-28. Moreover, the GI50 with SF-295 was 0.753 µM (active); in the test with UO-31, 7.93 µM (inactive); in the test on SN12C, 0.91 µM (active); in the test with SK-OV-3 it was 28.7 µM (inactive); with CCRF-CEM it was 0.531 µM (active); with MDA-N, 0.173 µM (active). The GI50 was 10.8 µM (inactive) in the test with SNB-75 and 0.481 µM (active) with SW-620.
As for `NC(=O)NC1NC(=O)NC1=O` (stereo not given) [ALLANTOIN], the GI50 in the test with HT-29, in the test with COLO 205, in the test on TK-10, with OVCAR-8, in the test on ACHN and in the test with MOLT-4 was > 100 µM (inactive) each time. The GI50 in the test with UACC-62, in the test on MDA-MB-231, with NCI/ADR-RES, with HOP-92, in the test with OVCAR-3 and in the test on SK-MEL-28 was > 100 µM (inactive) throughout. The GI50 was > 100 µM (inactive) in the test on SF-295; 6 µM (inactive) in the test on UO-31; > 100 µM (inactive) with SN12C; > 100 µM (inactive) in the test on SK-OV-3; > 100 µM (inactive) with CCRF-CEM; > 100 µM (inactive) in the test with MDA-N. In addition, the GI50 in the test with SNB-75 and with SW-620 was > 100 µM (inactive) in each case.
Regarding `CN1CCC(CN2c3ccccc3Sc3ccccc32)C1` (stereo not given) [METHDILAZINE HYDROCHLORIDE], the GI50 in the test on HT-29 was 10.9 µM (inactive); in the test with COLO 205, 11.5 µM (inactive); in the test with TK-10, 17.6 µM (inactive); in the test with OVCAR-8, 16.5 µM (inactive); with ACHN, 14.7 µM (inactive); in the test on MOLT-4 it was 16.3 µM (inactive). In addition, the GI50 with UACC-62 was 12.8 µM (inactive); in the test with MDA-MB-231, 14 µM (inactive); with NCI/ADR-RES, 15.2 µM (inactive); with HOP-92 it was 12.8 µM (inactive); with OVCAR-3, 14.2 µM (inactive); in the test on SK-MEL-28, 6.44 µM (inactive). Further, the GI50 in the test on SF-295 is 16.1 µM (inactive); in the test on UO-31, 14.8 µM (inactive); in the test on SN12C, 15.3 µM (inactive); in the test with SK-OV-3, 17.3 µM (inactive); in the test on CCRF-CEM, 15.2 µM (inactive); in the test with MDA-N, 14.1 µM (inactive). Besides, the GI50 with SNB-75 is 1.79 µM (inactive); with SW-620 it was 19.2 µM (inactive).

These data come from ChEMBL document CHEMBL1201862, “PubChem BioAssay data set” (2004).
